Consider 11 compounds from EP4806894A1, “TNAP INHIBITORY COMPOUND AND USE THEREOF” (Rednvia Co., Ltd., priority 2023, dated 2025).

Test [1] concerns the target T1, TNAP (Homo sapiens, UniProt P05186).
T1 sequence (P05186 18-502 limits assumed): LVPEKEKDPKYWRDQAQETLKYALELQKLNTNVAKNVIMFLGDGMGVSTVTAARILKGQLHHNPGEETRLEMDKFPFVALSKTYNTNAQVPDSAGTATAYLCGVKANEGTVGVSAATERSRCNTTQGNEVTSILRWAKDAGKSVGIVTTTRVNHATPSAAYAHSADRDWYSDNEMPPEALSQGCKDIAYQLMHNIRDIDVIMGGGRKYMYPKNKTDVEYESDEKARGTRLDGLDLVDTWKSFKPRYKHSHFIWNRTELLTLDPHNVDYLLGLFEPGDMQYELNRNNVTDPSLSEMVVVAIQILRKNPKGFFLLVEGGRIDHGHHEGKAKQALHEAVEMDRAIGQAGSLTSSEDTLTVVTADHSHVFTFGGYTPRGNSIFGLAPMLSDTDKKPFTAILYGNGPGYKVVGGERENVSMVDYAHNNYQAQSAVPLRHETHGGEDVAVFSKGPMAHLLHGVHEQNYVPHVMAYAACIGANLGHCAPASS
The experiment in a line: TNAP inhibitory activity, colorimetric assay (alkaline phosphatase assay kit ab83369, pNPP substrate). In kind it is biochemical. Particulars: TNAP enzyme, 2 hours at room temperature, absorbance 405 nm.

Test [2] deals with saos-2 cells. As to the kind of experiment: Anticalcification efficacy in saos-2 cells (osteogenic medium, Alizarin Red staining). In kind it is cell-based. Particulars: test compound 1 µM, 7 days osteogenic medium, Alizarin Red absorbance 540 nm; for inhibition at 1 µM: Homo sapiens, 168 h, read-out: calcification inhibition. The method, boiled down: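 Saos-2 cells at 80–90% confluence induced for 7 days in osteogenic medium (DMEM, 100 nM dexamethasone, 10 mM β-glycerophosphate, 0.05 mM ascorbic acid), compound (0.5, 1, 5, 10 […]) added with each medium change. Alizarin Red staining eluted with cetylpyridinium chloride, A540 read; inhibition taken against OM-only absorbance.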

The subject of test [3] is C57BL/6 mouse. The experiment in a line: Warfarin-induced calcification mouse animal model (aortic valve histopathology). It is filed as in vivo. As to conditions: for blackened area (von Kossa staining, increased calcification): Figure 1, versus warfarin and vitamin K1-induced calcification group (B); for Number of inflammatory cells (cells/mm^2): aortic valve area; for Number of inflammatory cells (cells/mm^2) / Mean thickness (µm): HE staining; for Number of inflammatory cells (cells/mm^2) / Mean thickness (µm) / Calcified area (%/mm^2): warfarin and vitamin K1 for 4 weeks, C57BL/6 mouse; for Mean thickness (µm) / Calcified area (%/mm^2): aortic valve; for Calcified area (%/mm^2): von Kossa staining. The protocol:
• 1. Animal: C57BL/6 mouse (OrientBio, Sungnam-city, Korea) • Gender: male • Age on arrival: C57BL/6 (6 weeks) • Raising: Animals were raised in filter cap polycarbonate cages, 5 animals each, in a temperature (25°C) and humidity (45-55%) controlled sterile clean room. The light:dark cycle was 12 hours:12 hours, and sterilized food and water were provided with free access. • Guidelines: All animals were treated in accordance with the Daegu Haany University Institutional Animal Care and Use Committee (Gyeongsan, Korea). • 2. General experimental methods: In vivo drug administration
After acclimating the mice for one week, they were divided into each group and tested.
After acclimation for one week, the groups were randomized.
The mice were divided into four groups: a group that received no treatment (A), a group that was treated with warfarin and vitamin K1 to induce calcification (B), a group that was administered orally with 0.5% CMC (carboxymethyl Cellulose) (C), and a group that was administered with the test compound. The compounds of Example 1 (K) and Example 6 (L) were selected as the test compound.
All groups, except the untreated control group (Normal), were administered both warfarin and vitamin K1 at 8:00 AM and warfarin alone at 8:00 PM for 4 weeks.
Heart tissue samples were obtained from each group and used for analysis.
(§1) Individual heart samples were cut crosswise, one section at a time, around the origin/root region of the ascending aorta. Histological sections were then prepared from all the samples received. All cross-sectioned cardiac-aortic valve sections were refixed in 10% neutral buffered formalin for 24 hours to prepare histological samples. After the samples were embedded in paraffin, two serial sections of 3 to 4 µm thickness were prepared on each paraffin block and stained with hematoxylin & eosin (HE) for general histopathology or von Kossa (VK) for calcium deposition, respectively. To observe more detailed changes, a computer-assisted image analysis program and a histological camera system were used to calculate the mean aortic valve thickness (µm) and the number of inflammatory cells infiltrating the aortic valve area (cells/mm^2) in HE staining, and the mean calcified aortic valve area (%/mm^2) in VK staining in this histopathological analysis.

The subject of test [4] is C57BL/6 mouse. As to the kind of experiment: Vitamin D-induced calcification mouse animal model (aortic valve histopathology). In kind it is in vivo. Particulars: for blackened area (von Kossa staining, increased calcification): Figure 2, versus high-dose vitamin D3-induced calcification group (B); for Number of inflammatory cells (cells/mm^2): aortic valve area; for Number of inflammatory cells (cells/mm^2) / Mean thickness (µm): HE staining; for Number of inflammatory cells (cells/mm^2) / Mean thickness (µm) / Calcified area (%/mm^2): vitamin D3 6.5x10^5 IU/Kg s.c. for 3 days, compound orally once a day for 8 days, mouse; for Mean thickness (µm) / Calcified area (%/mm^2): aortic valve; for Calcified area (%/mm^2): von Kossa staining. How it is done: as §1
Experimental animals were prepared similarly to Experimental Example 3. Excluding the normal group, four groups were administered with high-dose (6.5x10^5 IU/Kg) vitamin D3 subcutaneously once a day for a total of 3 days to induce calcification. The compounds of Examples 1 and 6 were administered orally together from the first day of vitamin D3 administration, and then administered once a day for 5 more days without vitamin D3 administration, for a total of 8 days.
Samples were obtained and analyzed in the same manner as in Experimental Example 3.

In the case of “5-chloro-2-methoxy-N-(5-oxo-6,7-dihydro-5H-pyrrolo[3,4-b]pyridine-3-yl)benzenesulfonamide [Example 1]”, in test [1], the half-maximal inhibitory concentration (IC50) (as a rule, the midpoint of a concentration-inhibition curve) fell in the range of 0.01 to 0.1 µM. The calcification inhibition entry in test [2] is “A (inhibition of 50% or more was expressed as "A")”. In test [3], the “blackened area (von Kossa staining, increased calcification)” value is recorded as “significantly reduced”; the “Number of inflammatory cells (cells/mm^2)” value (“Number of inflammatory cells” below) worked out at 144.40±43.12 cells/mm^2; the “Mean thickness (µm)” value worked out at 112.42±10.81 µm; the “Calcified area (%/mm^2)” value came out at 2.45±0.64 %/mm^2. Moreover, in test [4], the “blackened area (von Kossa staining, increased calcification)” value is given as “significantly reduced”; the “Number of inflammatory cells” value came to 110.89±21.64 cells/mm^2; the “Mean thickness (µm)” value is reported as 64.26±12.34 µm; the “Calcified area (%/mm^2)” value turned out to be 7.95±1.16 %/mm^2.
In the case of `COc1ccc(Cl)cc1S(=O)(=O)Nc1cnc2c(c1)C(=O)NCC2` [Example 6, 5-chloro-2-methoxy-N-(5-oxo-5,6,7,8-tetrahydro-1,6-naphthyridine-3-yl)benzenesulfonamide], the half-maximal inhibitory concentration (IC50) in test [1] is at most 0.01 µM. Also, in test [2], the inhibition (commonly the drop in the measured response relative to a control, in per cent) at 1 µM is at least 50%. Also, in test [3], the “blackened area (von Kossa staining, increased calcification)” value is “significantly reduced”; the “Number of inflammatory cells” value came out at 80.40±14.90 cells/mm^2; the “Mean thickness (µm)” value is 91.69±15.70 µm; the “Calcified area (%/mm^2)” value was 1.16±0.30 %/mm^2. In addition, in test [4], the “blackened area (von Kossa staining, increased calcification)” value is listed as “significantly reduced”; the “Number of inflammatory cells” value came to 58.89±17.32 cells/mm^2; the “Mean thickness (µm)” value is 51.76±10.39 µm; the “Calcified area (%/mm^2)” value was found to be 2.44±0.92 %/mm^2.
The compound `COc1ccc(Cl)cc1S(=O)(=O)Nc1cnc2c(c1)CN(C(=O)NCC1CC1)CC2` [Example 116, 3-((5-chloro-2-methoxyphenyl)sulfonamido)-N-(cyclopropylmethyl)-7,8-dihydro-1,6-naphthyridine-6(5H)-carboxamide] returned an IC50 in test [1] of 0.01 to 0.1 µM. The inhibition at 1 µM in test [2] was at least 50%.
Compound `COc1ccc(Cl)cc1S(=O)(=O)Nc1cnc2c(c1)CN(C(=O)NCCF)CC2` [Example 117, 3-((5-chloro-2-methoxyphenyl)sulfonamido)-N-(2-fluoroethyl)-7,8-dihydro-1,6-naphthyridine-6(5H)-carboxamide] had a half-maximal inhibitory concentration (IC50) in test [1] of 0.01 to 0.1 µM. Moreover, in test [2], the inhibition at 1 µM is at least 50%.
`COc1ccc(Cl)cc1S(=O)(=O)Nc1cnc2c(c1)CN(C(=O)CC(C)(C)C)CC2` [Example 118, 5-chloro-N-(6-(3,3-dimethylbutanoyl)-5,6,7,8-tetrahydro-1,6-naphthyridine-3-yl)-2-methoxybenzenesulfonamide] gave an IC50 in test [1] of 0.01 to 0.1 µM. Further, in test [2], the inhibition at 1 µM was at least 50%.
Taken in the same sequence, the figures for `COc1ccc(Br)cc1S(=O)(=O)Nc1cnc2c(c1)CN(C(=O)CC(C)(C)C)CC2` [Example 119, 5-bromo-N-(6-(3,3-dimethylbutanoyl)-5,6,7,8-tetrahydro-1,6-naphthyridine-3-yl)-2-methoxybenzenesulfonamide] were 0.01 to 0.1 µM and at least 50%.
For `COc1ccc(-c2cnn(-c3ccncc3)c2)cc1S(=O)(=O)Nc1cnc2c(c1)C(=O)NCC2` [Example 120, 2-methoxy-N-(5-oxo-5,6,7,8-tetrahydro-1,6-naphthyridine-3-yl)-5-(1-(pyridine-4-yl)-1H-pyrazole-4-yl)benzenesulfonamide], in test [1], the IC50 fell in the range of 0.1 to 1 µM. In addition, in test [2], the inhibition at 1 µM was below 0%.
Taken in the same sequence, the figures for `COc1ccc(-c2c(C)nn(C)c2C)cc1S(=O)(=O)Nc1cnc2c(c1)C(=O)NCC2` [Example 121, 2-methoxy-N-(5-oxo-5,6,7,8-tetrahydro-1,6-naphthyridine-3-yl)-5-(1,3,5-trimethyl-1H-pyrazole-4-yl)benzenesulfonamide] were 0.1 to 1 µM and below 0%.
Take `COc1ccc(-c2cnn(C(C)(C)C)c2)cc1S(=O)(=O)Nc1cnc2c(c1)C(=O)NCC2` [Example 122, 5-(1-(tert-butyl)-1H-pyrazole-4-yl)-2-methoxy-N-(5-oxo-5,6,7,8-tetrahydro-1,6-naphthyridine-3-yl)benzenesulfonamide]: the 50% inhibitory concentration (IC50) in test [1] lay within 0.01 to 0.1 µM. Besides, the inhibition at 1 µM in test [2] was below 0%.
Take `CCCCn1cc(-c2ccc(OC)c(S(=O)(=O)Nc3cnc4c(c3)C(=O)NCC4)c2)cn1` [Example 123, 5-(1-butyl-1H-pyrazole-4-yl)-2-methoxy-N-(5-oxo-5,6,7,8-tetrahydro-1,6-naphthyridine-3-yl)benzenesulfonamide]: the half-maximal inhibitory concentration (IC50) in test [1] fell in the range of 0.01 to 0.1 µM. For the same compound, in test [2], the inhibition at 1 µM is at least 50%.
With `COc1ccc(-c2cnn(-c3ccccc3)c2)cc1S(=O)(=O)Nc1cnc2c(c1)C(=O)NCC2` [Example 124, 2-methoxy-N-(5-oxo-5,6,7,8-tetrahydro-1,6-naphthyridine-3-yl)-5-(1-phenyl-1H-pyrazole-4-yl)benzenesulfonamide], the IC50 in test [1] lay within 0.1 to 1 µM. Besides, the inhibition at 1 µM in test [2] was below 0%.
